Columns and labels:
[1] = system: recombinant human anti-SARS-CoV antibody 03-018; type: binding; set-up: Binding of antibody 03-018 to linear peptides of the N protein of SARS-CoV Urbani / Binding of antibody 03-018 to looped/cyclic peptides of the N protein of SARS-CoV Urbani: unit not given here
[2] = system: antibodies in sera from SARS patients (sera 1a, 1b, 2, 6, 37, 62, London, SARS-yellow, SARS-green); type: binding, human; set-up: Binding of serum 6 to linear peptides of protein X1 of SARS-CoV Urbani / Binding of serum 37 to linear peptides of protein X1 of SARS-CoV Urbani / Binding of serum 6 to looped/cyclic peptide (PEPSCAN-ELISA) / Binding of serum 37 to looped/cyclic peptide (PEPSCAN-ELISA) / Binding of serum 37 to looped/cyclic peptides of protein X1 of SARS-CoV Urbani / Binding of serum 6 to linear peptides of protein X2 / Binding of serum 37 to linear peptides of protein X2 / Binding of serum 37 to looped/cyclic peptides of protein X2 of SARS-CoV Urbani / Binding of serum 6 to linear peptides of protein M of SARS-CoV Urbani / Binding of serum 37 to linear peptides of protein M of SARS-CoV Urbani / Binding of serum 6 to looped/cyclic peptides of protein M of SARS-CoV Urbani / Binding of serum 37 to looped/cyclic peptides of protein M of SARS-CoV Urbani / Binding of serum 6 to linear peptides of protein X3 of SARS-CoV Urbani / Binding of serum 37 to linear peptides of protein X3 of SARS-CoV Urbani / Binding of serum 37 to looped/cyclic peptides of protein X3 of SARS-CoV Urbani / Binding of serum 6 to linear peptides of protein X4 of SARS-CoV Urbani / Binding of serum 37 to linear peptides of protein X4 of SARS-CoV Urbani / Binding of serum 37 to looped/cyclic peptides of protein X4 of SARS-CoV Urbani / Binding of serum 6 to linear peptides of protein X5 of SARS-CoV Urbani / Binding of serum 37 to linear peptides of protein X5 of SARS-CoV Urbani / Binding of serum 37 to looped/cyclic peptides of protein X5 of SARS-CoV Urbani / Binding of serum 6 to linear peptides of protein N of SARS-CoV Urbani / Binding of serum 37 to linear peptides of protein N of SARS-CoV Urbani / Binding of serum 6 to linear peptide (PEPSCAN-ELISA) / Binding of serum 1a to looped/cyclic peptides of protein N of SARS-CoV Urbani / Binding of serum 1b to looped/cyclic peptides of protein N of SARS-CoV Urbani / Binding of serum 2 to looped/cyclic peptides of protein N of SARS-CoV Urbani / Binding of serum 6 to looped/cyclic peptides of protein N of SARS-CoV Urbani / Binding of serum 37 to looped/cyclic peptides of protein N of SARS-CoV Urbani / Binding of serum 62 to looped/cyclic peptides of protein N of SARS-CoV Urbani / Binding of serum London to looped/cyclic peptides of protein N of SARS-CoV Urbani / Binding of serum SARS-green to looped/cyclic peptides of protein N of SARS-CoV Urbani: unit not given here
[3] = system: control sera (pooled serum of ten healthy LUMC hospital workers; commercial negative donor pooled serum from the Dutch bloodbank); type: binding, human; set-up: Binding of Control serum LUMC to linear peptides / Binding of Control serum Blood-bank to linear peptides / Binding of Control serum LUMC to looped peptides / Binding of Control Serum Blood-Bank to Looped peptides / Binding of Control serum LUMC to linear peptides of the protein M of SARS-CoV Urbani / Binding of Control serum Blood-bank to linear peptides of the protein M of SARS-CoV Urbani / Binding of Control serum LUMC to looped peptides of the protein M of SARS-CoV Urbani / Binding of Control Serum Blood-Bank to Looped peptides of the protein M of SARS-CoV Urbani: unit not given here
[4] = system: rabbit serum obtained by immunizing a rabbit with the SARS-CoV strain Frankfurt 1; type: binding; set-up: Binding of a rabbit serum to linear peptides / Binding of a rabbit serum to looped peptides / Rabbit serum linear peptides / Rabbit serum looped peptides / Binding of a rabbit serum to linear peptides of protein N of SARS-CoV Urbani (Rabbit serum linear peptides) / Binding of a rabbit serum to looped/cyclic peptides of protein N of SARS-CoV Urbani (Rabbit serum looped peptides): unit not given here

NVILLNKHIDAYKTF was tested, and the “Binding of antibody 03-018 to linear peptides of the N protein of SARS-CoV Urbani” value [1] was 0.1, the “Binding of antibody 03-018 to looped/cyclic peptides of the N protein of SARS-CoV Urbani” value [1] was 0.2 and the “Binding of serum 1a to linear peptides of protein N of SARS-CoV Urbani” value [2] was 0.2. The “Binding of serum 1a to looped/cyclic peptides of protein N of SARS-CoV Urbani” value [2] was 0.5, the “Binding of serum 1b to linear peptides of protein N of SARS-CoV Urbani” value [2] was 0.1 and the “Binding of serum 1b to looped/cyclic peptides of protein N of SARS-CoV Urbani” value [2] was 0.3. The “Binding of serum 2 to linear peptides of protein N of SARS-CoV Urbani” value [2] was 0.2, the “Binding of serum 2 to looped/cyclic peptides of protein N of SARS-CoV Urbani” value [2] was 0.4 and the “Binding of serum 6 to linear peptides of protein N of SARS-CoV Urbani” value [2] was 0.1. The “Binding of serum 6 to looped/cyclic peptides of protein N of SARS-CoV Urbani” value [2] was 0.3, the “Binding of serum 37 to linear peptides of protein N of SARS-CoV Urbani” value [2] was 0.7 and the “Binding of serum 37 to looped/cyclic peptides of protein N of SARS-CoV Urbani” value [2] was 0.7. For the same sequence, the “Binding of serum 62 to linear peptides of protein N of SARS-CoV Urbani” value [2] was 0.6, the “Binding of serum 62 to looped/cyclic peptides of protein N of SARS-CoV Urbani” value [2] was 0.7 and the “Binding of serum London to linear peptides of protein N of SARS-CoV Urbani” value [2] was 0.5. For the same sequence, the “Binding of serum London to looped/cyclic peptides of protein N of SARS-CoV Urbani” value [2] was 0.9, the “Binding of serum SARS-green to linear peptides of protein N of SARS-CoV Urbani” value [2] was 0.3 and the “Binding of serum SARS-green to looped/cyclic peptides of protein N of SARS-CoV Urbani” value [2] was 0.3. For the same sequence, the “Binding of serum SARS-yellow to linear peptides of protein N of SARS-CoV Urbani” value [2] was 0.6, the “Binding of serum SARS-yellow to looped/cyclic peptides of protein N of SARS-CoV Urbani” value [2] was 0.7 and the “Control Serum Blood-Bank Looped peptides” value [3] was 0.8. For the same sequence, the “Control serum Blood-bank linear peptides” value [3] was 0.7, the “Control serum LUMC linear peptides” value [3] was 0.7 and the “Control serum LUMC looped peptides” value [3] was 0.7. The “Binding of a rabbit serum to linear peptides of protein N of SARS-CoV Urbani (Rabbit serum linear peptides)” value [4] was 0.2 and the “Binding of a rabbit serum to looped/cyclic peptides of protein N of SARS-CoV Urbani (Rabbit serum looped peptides)” value [4] was 0.6.
NVTQAFGRRGPEQTQ was tested, and the “Binding of antibody 03-018 to linear peptides of the N protein of SARS-CoV Urbani” value [1] was 0.1, the “Binding of antibody 03-018 to looped/cyclic peptides of the N protein of SARS-CoV Urbani” value [1] was 0.2 and the “Binding of serum 1a to linear peptide (PEPSCAN-ELISA)” value [2] was 0.2. The “Binding of serum 1a to looped/cyclic peptides of protein N of SARS-CoV Urbani” value [2] was 0.3, the “Binding of serum 1b to linear peptide (PEPSCAN-ELISA)” value [2] was 0.1 and the “Binding of serum 1b to looped/cyclic peptides of protein N of SARS-CoV Urbani” value [2] was 0.2. The “Binding of serum 2 to linear peptide (PEPSCAN-ELISA)” value [2] was 0.2, the “Binding of serum 2 to looped/cyclic peptides of protein N of SARS-CoV Urbani” value [2] was 0.3 and the “Binding of serum 6 to linear peptide (PEPSCAN-ELISA)” value [2] was 0.2. For the same sequence, the “Binding of serum 6 to looped/cyclic peptides of protein N of SARS-CoV Urbani” value [2] was 0.2, the “Binding of serum 37 to linear peptide (PEPSCAN-ELISA)” value [2] was 0.6 and the “Binding of serum 37 to looped/cyclic peptides of protein N of SARS-CoV Urbani” value [2] was 0.5. The “Binding of serum 62 to linear peptide (PEPSCAN-ELISA)” value [2] was 0.7, the “Binding of serum 62 to looped/cyclic peptides of protein N of SARS-CoV Urbani” value [2] was 0.4 and the “Binding of serum London to linear peptide (PEPSCAN-ELISA)” value [2] was 0.5. The “Binding of serum London to looped/cyclic peptides of protein N of SARS-CoV Urbani” value [2] was 0.4, the “Binding of serum SARS-green to linear peptide (PEPSCAN-ELISA)” value [2] was 0.5 and the “Binding of serum SARS-green to looped/cyclic peptides of protein N of SARS-CoV Urbani” value [2] was 0.3. For the same sequence, the “Binding of serum SARS-yellow to linear peptide (PEPSCAN-ELISA)” value [2] was 0.6, the “Binding of serum SARS-yellow to looped/cyclic peptides of protein N of SARS-CoV Urbani” value [2] was 0.3 and the “Binding of Control Serum Blood-Bank to Looped peptides” value [3] was 0.5. For the same sequence, the “Binding of Control serum Blood-bank to linear peptides” value [3] was 0.7, the “Binding of Control serum LUMC to linear peptides” value [3] was 0.7 and the “Binding of Control serum LUMC to looped peptides” value [3] was 0.5. For the same sequence, the “Recognition of the peptide by the rabbit serum” value [4] was “recognized”.

— patent US20070128217A1 (priority 2003, published 2007)
